Assay results published in patent US20150272874A1, “PULMONARY DISEASE-SPECIFIC THERAPEUTIC AGENT” (CARDIO INCORPORATED, priority 2012, published 2015).
Where “and” joins values, the source holds several entries; their conditions need not be identical. Equal values may be shown once. Where a name gives a salt, the structure may show the parent alone.

What was measured:
TXA2 synthetase = molecular target: T1, TXA2 synthetase (Rattus norvegicus, UniProt P49430); assay: Dose completely inhibiting TXA2 synthetase; format: in vivo; conditions: oral dose
T1 construct: endogenous in cells; host or cells: Whole animal dosed in vivo (rat inferred)
T1 sequence (P49430 1-533): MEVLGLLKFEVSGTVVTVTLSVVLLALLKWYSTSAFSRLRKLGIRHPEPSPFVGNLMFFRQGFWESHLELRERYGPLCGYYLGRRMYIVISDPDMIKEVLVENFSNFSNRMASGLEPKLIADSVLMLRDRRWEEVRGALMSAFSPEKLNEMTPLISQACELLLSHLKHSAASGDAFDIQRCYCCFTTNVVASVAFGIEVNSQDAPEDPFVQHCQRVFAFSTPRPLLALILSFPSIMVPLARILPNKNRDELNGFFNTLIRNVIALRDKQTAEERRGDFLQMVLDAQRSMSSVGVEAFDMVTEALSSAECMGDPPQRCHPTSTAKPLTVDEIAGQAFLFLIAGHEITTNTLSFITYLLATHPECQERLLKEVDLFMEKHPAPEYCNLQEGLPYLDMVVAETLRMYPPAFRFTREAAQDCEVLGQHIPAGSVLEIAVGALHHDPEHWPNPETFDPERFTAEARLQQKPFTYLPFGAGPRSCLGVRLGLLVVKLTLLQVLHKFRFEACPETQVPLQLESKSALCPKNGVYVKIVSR

[1] = test system: monocrotaline (MCT) pulmonary hypertension models; assay: Pharmacological Effect Test 5: combined effect of ozagrel hydrochloride with Compounds 3 and 7, survival; format: in vivo, Slc;Wistar female rats; conditions: oral twice a day until Day 42; Compound 3 or 7 0.1 mg/kg, ozagrel hydrochloride 100 mg/kg, alone or combined
Procedure: After Slc;Wistar female rats (5 weeks old) were anesthetized with inhaled isoflurane, an aqueous monocrotaline (MCT) solution was subcutaneously administered into the dorsal region of each rat at a dose of 60 mg/kg (an injection volume of 3 mL/Kg) using a disposable syringe and a 27G disposable injection needle to prepare pulmonary hypertension models.
From immediately after the MCT administration until Day 42, test substances were repeatedly administered orally twice a day as shown in the following table.
The test substances were suspended in 0.5% aqueous CMC-Na solutions, and the aqueous solutions were orally administered repeatedly at a dose of 5 mL/kg.

[2] = Maximum tolerated oral dose without blood-pressure-lowering effect; format: in vivo
[3] = Pharmacological Effect Test 3: Compound 1 content of the lungs (LC/MS/MS); format: in vivo, Slc;Wistar male rats; conditions: for Concentration of Compound 1 in the tissue: lung, individual animals, 1 mg/kg
Procedure: Further, the Compound 1 contents of the lungs in Groups 3 and 4 were measured.
A four-fold amount of a mixture of distilled water and ethanol relative to the lung weight was added to form a homogenate. Acetonitrile was added to a part of the homogenate and the resulting mixture was stirred. The centrifuged supernatant was collected and concentrated. After the concentrate was dissolved in a solvent, LC/MS/MS measurement was performed under the same conditions as in Preparation Test Example 2 to determine Compound 1 content of the lungs.

blood TXA2 concentration = conditions: MCT rat models; Am J Respir Crit Care Med 172, 1575-1580 (2005); cited from earlier work
[4] = test system: Normal human newborn foreskin dermal fibroblasts (Fibrocell NHDF (NB)); assay: Pharmacological Effect Test 6: production of cytokines (ELISA) and PGs (EIA); format: cell-based; conditions: 1 μM, 72 hours, n=3, M ± S.E.
Procedure: Normal human newborn foreskin dermal fibroblasts (Fibrocell NHDF (NB)) provided from Kurabo Industries, Ltd., were cultured to confluency at […] (DMEM 10% FBS). Twenty-four hours after replacing the medium with (serum-free) DMEM, the medium was replaced with DMEM (0.2% FBS), and Compound 1 (1 μM) and a solvent (DMSO) was added. The cells were cultured for 72 hours (n=3).
Cytokines in the culture were measured by ELISA, and prostaglandins were measured by EIA.
PGI2 was measured by using a degradation product of PGI2 (6-keto-PGF1α).

[5] = cited from earlier work
[6] = cited from earlier work; remark: listed apart in the source
[7] = test system: MCT-induced mild pulmonary hypertension model; conditions: mild disease model; Am J Respir Crit Care Med 169: 34-38-2004; cited from earlier work

Compound: O=C(O)/C=C/c1ccc(Cn2ccnc2)cc1 [ozagrel hydrochloride]
- amount that completely inhibits the TXA2 synthetase (TXA2 synthetase): 100 mg/kg
- survival rate vs medium-administered group [1]: no survival prolongation effect

Compound: CCCC[C@H](C)C[C@H](O)/C=C/[C@H]1[C@H](O)CC(=O)[C@@H]1CC(=O)CCCCC(=O)OC [Compound 7, 17S,20-dimethyl-6-oxo-prostaglandin E1 methyl ester]
- survival rate vs medium-administered group [1]: no survival prolongation effect
- maximum tolerated dose that does not show blood-pressure-lowering effect [2]: 0.1 mg/kg

Compound: O=C(O)COc1cccc2c1CCC=C2CCO/N=C(\c1ccccc1)c1cccnc1 [Compound 1, (E)-[5-[2-[1-phenyl-1-(3-pyridyl)methylideneaminooxy]ethyl]-7,8-dihydronaphthalen-1-yloxy]acetic acid]
- average concentration in lung tissue ([3]; Group 3: Preparation Example 1 single i.v. 1 mg/kg): 76.35 ng/g
- average concentration in lung tissue ([3]; Group 4: Preparation Example 1 single s.c. 1 mg/kg): 0.659 ng/g
- concentration in lung tissue, intravenous compared to subcutaneous injection ([3]; i.v. 1 mg/kg vs s.c. 1 mg/kg): about 120 fold
- ratio of Group 3 to Group 4, concentration in lung tissue ([3]; i.v. 1 mg/kg vs s.c. 1 mg/kg): 115.9
- Concentration of Compound 1 in the tissue ([3]; Group 3 (1 mg/kg) of Preparation Example 1): 50.0 ng/g and 99.2 ng/g and 45.2 ng/g and 111 ng/g
- Concentration of Compound 1 in the tissue ([3]; Group 4 (1 mg/kg) as printed, Preparation Example 1): 1.06 ng/g and 0.258 ng/g
- blood TXA2 concentration (blood TXA2 concentration): inhibits an increase
- 6-keto-PGF1α (PGI2) [4]: 44.5 ± 4.014 pg/mL
- G-CSF [4]: 28.71 ± 6.110 pg/mL
- HGF [4]: 102.60 ± 15.658 pg/mL
- HMGB1 [4]: 1.480 ± 0.147 ng/mL
- PGE2 [4]: 38.1 ± 6.392
- SDF-1α [4]: 2457.46 ± 231.884 pg/mL
- VEGF [4]: 38.44 ± 11.857 pg/mL

Compound: CCCCC[C@H](O)/C=C/[C@@H]1[C@H]2C/C(=C/CCCC(=O)O)O[C@H]2C[C@H]1O [Epoprostenol sodium, reference compound]
- blood TXA2 concentration (blood TXA2 concentration): further increases
- half-life [5]: about 6 minutes

Compound: CC#CC[C@@H](C)[C@H](O)/C=C/[C@@H]1[C@H]2c3cccc(CCCC(=O)[O-])c3O[C@H]2C[C@H]1O.[Na+] (racemic) [Compound 3, sodium (±)-(1R,2R,3aS,8bS)-2,3,3a,8b-tetrahydro-2-hydroxy-1-[(E)-(3S,4RS)-3-hydroxy-4-methyl-1-octen-6-ynyl]-1H-cyclopenta[b]benzofuran-5-butanoate]
- long-term effects ([6]; after 1 year): no significant difference
- exercise tolerance ([6]; relatively short-term (after 12 weeks)): improved
- combined effect with a PDEV inhibitor (sildenafil) [7]: synergistic effect
- efficacy administered alone [7]: efficacious
- survival rate vs medium-administered group [1]: no survival prolongation effect
- MTD ([2]; Slc:Wistar, rat, in vivo, read-out: maximum tolerated dose that does not show blood-pressure-lowering effect): 0.1 mg/kg
